Assay results taken from article PMC6440464 (PeerJ, 2019).
Like-named read-outs stand apart in the source and are kept apart here.

Test: Pharmacokinetics study after separate oral administration in rats (HPLC-MS of plasma)
Type: in vivo, Sprague-Dawley rats
Details: male, Sprague-Dawley, rat, plasma, 50 mg/kg; for Tmax / AUC(0-t) / CL/F / Cmax / MRT last / half-life: po, rat plasma; for Tmax: read-out: Tmax (converted); for CL/F: read-out: CLz/F; for Cmax: read-out: Cmax; for half-life: read-out: t1/2z
Protocol: A total of 15 SPF Sprague-Dawley rats (SD, male, 190–210 g) were provided by Sino-British Sippr/BK Lab Animal Company Ltd. (Shanghai, China). The rats were kept in standard conditions (22–26 °C; 40–60% relative humidity; 12 h light/dark cycle). Throughout the rearing period, the animals had access to food and water ad libitum. Animal experiments were conducted in accordance with the standard ethical guidelines of the Laboratory Animal Management Committee of Jiangsu Province (SYXK (SU) 2016-0011).
Following 1 week of adaptation, the rats were fasted for about 12 h before dosing, with free access to water. […] After administration of the first dose, blood samples were taken from the retro-orbital vein at 0, 5, 15, 30, 60, 90, 120, 180, 240, 360, 480, and 1,440 min and collected in heparinized tubes. The samples were centrifuged at 3,500 rpm for 10 min at 4 °C and the plasma was stored at −80 °C until analysis.
An Agilent 1,200 series HPLC system (Agilent Technologies, Waldbronn, Germany) equipped with a quaternary pump on-line degasser, auto-sampler and column oven, and an SL G1946D quadruple mass spectrometer (Agilent Technologies, Santa Clara, CA, USA) equipped with an electrospray ionization (ESI) source, were used for separation and detection. Data were acquired and analyzed using Agilent ChemStation Software Version A.01.00 (Agilent Technologies, Santa Clara, CA, USA).
The separation was carried out with an Amethyst C18-H column (150 × 4.6 mm, 5 μm, Sepax Technologies, Newark, DE, USA) with a guard column SB-C18 (10 × 4.6 mm, 5 μm, Phenomenex Technologies, Torrance, USA) at a constant temperature of 25 °C.
The mass spectra were acquired using ESI interfaced to a single quadrupole mass spectrometer. The ionization conditions were as follows: drying gas (N2) flow rate of 11 L/min, drying gas temperature of 350 °C, nebulizing gas (N2) pressure of 35 psi, capillary voltage of 3,500 V, quad temperature of 100 °C, and fragment voltage of 110 V. A series of m/z were monitored using a timed program according to the retention times and characteristic ions for the corresponding HPLC-MS peak obtained by scanning from m/z 100–1,000 in the standard sample.
Briefly, an aliquot of plasma sample (100 μL) was spiked with 5% formic acid (10 μL) in centrifuge tube. Subsequently, hydrochloric acid (2 mol/L, 10 μL) and IS solution (960.00 ng/mL, 20 μL) were added. Then ethyl acetate/n-butyl alcohol (1:1 v/v; 1,000 μL) was used to extract the components. The samples were then homogenized by vortex mixing and centrifuged for 10 min at 14,000 rpm. After centrifugation, 800 μL of supernatant was transferred to another centrifuge tube and the sample was evaporated to dryness. The residues were dissolved in 100 μL of methanol and centrifuged for 10 min at 12,000 rpm. 50 μL of the supernatant was transferred to the vial and an aliquot of 5 μL was injected into the HPLC-MS system for analysis.
DAS 2.0 (Chinese Pharmacological Association, Shanghai, China) was used to calculate the pharmacokinetic parameters using the non-compartment model, including the area under curve (AUC), mean residence time (MRT), half-life ( t1/2z), clearance rate (CL), maximum plasma concentration (Cmax), and time (Tmax). All results are expressed as mean ± standard deviation (SD). One way analysis of variance followed by […] was used for comparison of different groups using Graph pad prism 5 software. A p-value of <0.05 was considered statistically significant.

[1] = IQ group (oral IQ 50 mg/kg), labelled substance = analyte, mean of 5 rats
[2] = IQ group: oral IQ 50 mg/kg, mean ± SD, n = 5
[3] = QG group (oral QG 50 mg/kg), labelled substance = analyte, mean of 5 rats
[4] = QG group: oral QG 50 mg/kg, mean ± SD, n = 5
[5] = Qr group (oral Qr 50 mg/kg), labelled substance = analyte, mean of 5 rats
[6] = Qr group: oral Qr 50 mg/kg, mean ± SD, n = 5

Compound `O=c1c(O)c(-c2ccc(O)c(O)c2)oc2cc(O)cc(O)c12` [Qr, Quercetin] has a concentration at 5 min (oral, QG group (oral QG 50 mg/kg), 5 min, individual rats NO. 1-5, read-out: Plasma concentrations) of 0 ng/mL, a concentration at 15 min (oral, QG group (oral QG 50 mg/kg), 15 min, individual rats NO. 1-5, read-out: Plasma concentrations) of 0 ng/mL and a concentration at 30 min (oral, QG group (oral QG 50 mg/kg), 30 min, individual rats NO. 1-5, read-out: Plasma concentrations) of 0 ng/mL. The concentration at 240 min (oral, Qr group (oral Qr 50 mg/kg), 240 min, individual rats NO. 1-5, read-out: Plasma concentrations) was 2590 ng/mL, the Tmax (IQ group (oral IQ 50 mg/kg), labelled substance = analyte, individual rats No1-No5) was 0.5 h and the AUC(0-t) (IQ group (oral IQ 50 mg/kg), labelled substance = analyte, mean of 5 rats, read-out: AUC(0-t) (converted)) was 36900 ng·h/mL. It also gave a CL/F [1] of 24 mL/min/kg, a Cmax [1] of 6600 ng/mL and an MRT last (IQ group (oral IQ 50 mg/kg), labelled substance = analyte, mean of 5 rats, read-out: MRT(0-t) (converted)) of 7.04 h. It also gave a Tmax [1] of 0.7 h, a half-life [1] of 6.31 h and an AUC(0-t) (IQ group: oral IQ 50 mg/kg, mean ± SD, n = 5, read-out: AUC0−t (converted)) of 36900 ng·h/mL. It also gave a Cmax [2] of 6600 ± 2670 ng/mL, an MRT last (IQ group: oral IQ 50 mg/kg, mean ± SD, n = 5, read-out: MRT0−t (converted)) of 7.04 h and a Tmax [2] of 0.7 h. For the same compound, the half-life [2] was 6.31 ± 5.65 h, the Tmax (QG group (oral QG 50 mg/kg), labelled substance = analyte, individual rats No1-No5) was 4 h and the AUC(0-t) (QG group (oral QG 50 mg/kg), labelled substance = analyte, mean of 5 rats, read-out: AUC(0-t) (converted)) was 58400 ng·h/mL. It also gave a CL/F [3] of 14 mL/min/kg, a Cmax [3] of 5170 ng/mL and a Tmax [3] of 6 h. It also gave a half-life [3] of 6.09 h, an AUC(0-t) (QG group: oral QG 50 mg/kg, mean ± SD, n = 5, read-out: AUC0−t (converted)) of 58400 ng·h/mL and a Cmax [4] of 5170 ± 1850 ng/mL. For the same compound, the Tmax [4] was 6 h, the half-life [4] was 6.09 ± 2.53 h and the MRT last (Qr group (oral Qr 50 mg/kg), labelled substance = analyte, individual rats No1-No5, read-out: MRT(0-t) (converted)) was 6.33 h. For the same compound, the half-life (Qr group (oral Qr 50 mg/kg), labelled substance = analyte, individual rats No1-No5) was 7.67 h, the AUC(0-t) (Qr group (oral Qr 50 mg/kg), labelled substance = analyte, mean of 5 rats, read-out: AUC(0-t) (converted)) was 43200 ng·h/mL and the CL/F [5] was 20 mL/min/kg. The Cmax [5] was 7470 ng/mL, the Tmax [5] was 0.9 h and the half-life [5] was 7.29 h. The AUC(0-t) (Qr group: oral Qr 50 mg/kg, mean ± SD, n = 5, read-out: AUC0−t (converted)) was 43200 ng·h/mL, the Cmax [6] was 7470 ± 2630 ng/mL and the Tmax [6] was 0.9 h. The half-life [6] was 7.29 ± 0.905 h.
